Literature values in patent US8071607B2, “Mnk1 or Mnk2 inhibitors” (Boehringer Ingelheim International GmbH, priority 2004, dated 2011).

Tests used:
human Mnk2 protein = human Mnk2 protein (Homo sapiens, UniProt Q9HBH9); details: described in WO 02/103361
Mnk1 = Mnk1 (Homo sapiens, UniProt Q9BUB5); details: cell culture cells transfected with Mnk1
Mnk2 (Mnk2a or Mnk2b) = details: cell culture cells transfected with Mnk2 (Mnk2a or Mnk2b)

Sequence of Mnk1 (Q9BUB5 whole entry): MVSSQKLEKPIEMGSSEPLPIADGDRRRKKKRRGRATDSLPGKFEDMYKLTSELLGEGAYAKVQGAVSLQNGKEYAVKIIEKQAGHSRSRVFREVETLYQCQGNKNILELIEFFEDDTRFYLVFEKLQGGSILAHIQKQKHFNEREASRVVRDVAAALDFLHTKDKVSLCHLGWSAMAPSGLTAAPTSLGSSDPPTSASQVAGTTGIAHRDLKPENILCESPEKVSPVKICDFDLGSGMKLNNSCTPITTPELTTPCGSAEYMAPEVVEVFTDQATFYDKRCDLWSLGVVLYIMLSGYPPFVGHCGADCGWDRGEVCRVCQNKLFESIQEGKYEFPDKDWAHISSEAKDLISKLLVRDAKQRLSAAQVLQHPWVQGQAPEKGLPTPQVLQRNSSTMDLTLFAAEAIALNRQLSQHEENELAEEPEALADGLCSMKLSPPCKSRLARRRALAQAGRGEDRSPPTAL
Sequence of human Mnk2 protein (Q9HBH9 whole entry): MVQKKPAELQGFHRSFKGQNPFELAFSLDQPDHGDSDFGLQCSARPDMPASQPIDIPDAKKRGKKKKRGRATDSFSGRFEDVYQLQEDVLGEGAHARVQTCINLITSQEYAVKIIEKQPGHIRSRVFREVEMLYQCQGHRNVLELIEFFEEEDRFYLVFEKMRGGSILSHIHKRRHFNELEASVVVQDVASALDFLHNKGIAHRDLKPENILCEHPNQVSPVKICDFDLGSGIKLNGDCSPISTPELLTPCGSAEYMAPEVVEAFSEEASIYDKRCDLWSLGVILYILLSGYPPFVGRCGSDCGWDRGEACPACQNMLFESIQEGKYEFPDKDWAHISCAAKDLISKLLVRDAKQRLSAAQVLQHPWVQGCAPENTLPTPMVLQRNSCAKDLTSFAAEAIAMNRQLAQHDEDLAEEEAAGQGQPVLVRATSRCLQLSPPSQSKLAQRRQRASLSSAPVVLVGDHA

Row | binding to the human Mnk2 protein (human Mnk2 protein) | Structure (SMILES) | phosphorylated eIF4E (Mnk1) | phosphorylated eIF4E (Mnk2 (Mnk2a or Mnk2b))
1 | binds | COC(=O)c1ccc(O)cc1 [4-hydroxybenzoic acid methyl ester] | – | –
2 | – | Nc1ncnc2n[nH]c(Nc3ccc(F)cc3)c12 [CGP57380] | strong reduction | strong reduction
